Source: PubChem BioAssay AID248 (DTP/NCI, 2004)
Several values for one entry are separate records, joined by “and”; a condition that tells them apart may be missing. Equal entries are not always repeated. Toxic doses and inconclusive results are not listed. Rule as the data show it: active = T/C of 150% or more; inactive = T/C below 125%.

System: L1210 leukemia ip in BDF1 mice, survival T/C
Test: NCI In Vivo Anticancer Drug Screen. Data for tumor model L1210 Leukemia (intraperitoneal) in B6D2F1 (BDF1) mice
Conditions: endpoint: mean survival time, higher = longer survival
Procedure, shortened: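 Mice bearing the transplanted tumor received compound or vehicle. Survival of the treated group was divided by that of the vehicle-treated control group to give the ratio.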

[1] = dose: 100.0 mg/kg/injection, schedule: Q04DX003 (ip), vehicle: saline
[2] = dose: 75.0 mg/kg/injection, schedule: Q01DX001 (ip), vehicle: saline
[3] = dose: 150.0 mg/kg/injection, schedule: Q01DX001 (ip), vehicle: saline
[4] = dose: 100.0 mg/kg/injection, schedule: Q01DX001 (ip), vehicle: carboxymethylcellulose (CMC)
[5] = dose: 200.0 mg/kg/injection, schedule: Q01DX001 (ip), vehicle: carboxymethylcellulose (CMC)
[6] = dose: 400.0 mg/kg/injection, schedule: Q01DX001 (ip), vehicle: carboxymethylcellulose (CMC)
[7] = dose: 25.0 mg/kg/injection, schedule: Q04DX002 (ip), vehicle: saline
[8] = dose: 50.0 mg/kg/injection, schedule: Q04DX002 (ip), vehicle: saline
[9] = dose: 100.0 mg/kg/injection, schedule: Q04DX002 (ip), vehicle: Klucel (hydroxypropylcellulose) (HPC)
[10] = dose: 200.0 mg/kg/injection, schedule: Q04DX002 (ip), vehicle: Klucel (hydroxypropylcellulose) (HPC)
[11] = dose: 400.0 mg/kg/injection, schedule: Q04DX002 (ip), vehicle: Klucel (hydroxypropylcellulose) (HPC)
[12] = dose: 100.0 mg/kg/injection, schedule: Q01DX001 (ip), vehicle: saline

Measured: T/C

c1ccc2c(c1)[nH]c1nc3ccncc3nc12
inactive: [1] 103 % of control | dose: 200.0 mg/kg/injection, schedule: Q04DX003 (ip), vehicle: saline 94 % of control

NC(N)=N/N=C/c1cccc(Cl)c1Cl
inactive: dose: 7.5 mg/kg/injection, schedule: Q01DX Z (ip), vehicle: other 97 % of control | dose: 15.0 mg/kg/injection, schedule: Q01DX Z (ip), vehicle: other 100 % of control | dose: 30.0 mg/kg/injection, schedule: Q01DX Z (ip), vehicle: other 92 % of control | dose: 60.0 mg/kg/injection, schedule: Q01DX Z (ip), vehicle: other 86 % of control

CC(C)(C)[C]1=Nc2cccc[c]2[Ge]1([CH3])[CH3]
inactive: dose: 100.0 mg/kg/injection, schedule: Q04DX002 (ip), vehicle: saline with Tween-80 108 % of control | dose: 200.0 mg/kg/injection, schedule: Q04DX002 (ip), vehicle: saline with Tween-80 93 % of control | dose: 400.0 mg/kg/injection, schedule: Q04DX002 (ip), vehicle: saline with Tween-80 97 % of control

CC(O)CNC1CCCCC1 (stereo not given)
inactive: [2] 92 % of control | [3] 100 % of control

NC(CCl)=NCc1ccccn1
inactive: dose: 100.0 mg/kg/injection, schedule: Q04DX002 (ip), vehicle: saline 96 % of control

Cc1cccc(CCc2ccc(Br)c(C)c2C)c1C
inactive: [4] 100 % of control | [5] 103 % of control | [6] 94 % of control

CNC(=O)Nc1c(O)nc(N)[nH]c1=O
inactive: dose: 37.5 mg/kg/injection, schedule: Q01DX001 (ip), vehicle: saline 97 % of control | [2] 103 % of control | [3] 105 % of control

CSC(=S)NNC(=O)c1ccc(C(F)(F)F)cc1
inactive: dose: 10.0 mg/kg/injection, schedule: Q04DX003 (ip), vehicle: saline 106 % of control | dose: 20.0 mg/kg/injection, schedule: Q04DX003 (ip), vehicle: saline 106 % of control | dose: 40.0 mg/kg/injection, schedule: Q04DX003 (ip), vehicle: saline 105 % of control

COC1(c2ccc(Br)cc2)OC1(C)C (stereo not given)
inactive: dose: 25.0 mg/kg/injection, schedule: Q01DX009 (ip), vehicle: water 95 % of control | dose: 50.0 mg/kg/injection, schedule: Q01DX009 (ip), vehicle: water 101 % of control | dose: 100.0 mg/kg/injection, schedule: Q01DX009 (ip), vehicle: water 106 % of control | dose: 200.0 mg/kg/injection, schedule: Q01DX009 (ip), vehicle: water 107 % of control | dose: 400.0 mg/kg/injection, schedule: Q01DX009 (ip), vehicle: water 101 % of control

Cc1ccc(S(=O)(=O)OC2CC3CCC2C3)cc1 (stereo not given)
inactive: dose: 100.0 mg/kg/injection, schedule: Q01DX009 (ip), vehicle: other 107 % of control | dose: 200.0 mg/kg/injection, schedule: Q01DX009 (ip), vehicle: other 100 % of control | dose: 400.0 mg/kg/injection, schedule: Q01DX009 (ip), vehicle: other 102 % of control

NCCCC(NC(=O)CCCCCCCCN=C(N)N)C(O)CCCCCCCCN=C(N)N (stereo not given)
inactive: dose: 0.38 mg/kg/injection, schedule: Q01DX Z (ip), vehicle: carboxymethylcellulose (CMC) 102 % of control | dose: 0.75 mg/kg/injection, schedule: Q01DX Z (ip), vehicle: carboxymethylcellulose (CMC) 94 % of control | dose: 1.5 mg/kg/injection, schedule: Q01DX Z (ip), vehicle: carboxymethylcellulose (CMC) 96 % of control | dose: 3.0 mg/kg/injection, schedule: Q01DX Z (ip), vehicle: carboxymethylcellulose (CMC) 107 % of control | dose: 5.0 mg/kg/injection, schedule: Q01DX001 (ip), vehicle: carboxymethylcellulose (CMC) 94 % of control | dose: 6.0 mg/kg/injection, schedule: Q01DX Z (ip), vehicle: carboxymethylcellulose (CMC) 121 % of control | dose: 10.0 mg/kg/injection, schedule: Q01DX001 (ip), vehicle: carboxymethylcellulose (CMC) 100 % of control | dose: 20.0 mg/kg/injection, schedule: Q01DX001 (ip), vehicle: carboxymethylcellulose (CMC) 103 % of control

CN/N=C/c1ccc([N+](=O)[O-])o1
inactive: dose: 100.0 mg/kg/injection, schedule: Q04DX003 (ip), vehicle: saline with Tween-80 97 % of control | dose: 200.0 mg/kg/injection, schedule: Q04DX003 (ip), vehicle: saline with Tween-80 88 % of control

CC[N+](C)(C)CCCOC(=O)C1C2CC3CC(C2)CC1C3 (stereo not given)
inactive: [7] 88 % of control | [8] 98 % of control

CCCCCCC1C/C(=C/N(C)C)C(=O)O1 (stereo not given)
inactive: [9] 90 % of control | [10] 90 % of control | [11] 93 % of control

CCCCCCN
inactive: dose: 25.0 mg/kg/injection, schedule: Q01DX001 (ip), vehicle: saline 97 % of control | dose: 25.0 mg/kg/injection, schedule: Q01DX009 (ip), vehicle: saline 93 % of control and 105 % of control | [7] 97 % of control and 100 % of control | dose: 25.0 mg/kg/injection, schedule: Q04DX003 (ip), vehicle: saline 103 % of control | dose: 50.0 mg/kg/injection, schedule: Q01DX001 (ip), vehicle: saline 111 % of control | dose: 50.0 mg/kg/injection, schedule: Q01DX009 (ip), vehicle: saline 101 % of control and 104 % of control | [8] 97 % of control and 103 % of control | dose: 50.0 mg/kg/injection, schedule: Q04DX003 (ip), vehicle: saline 114 % of control | [12] 101 % of control | dose: 100.0 mg/kg/injection, schedule: Q01DX009 (ip), vehicle: saline 102 % of control | [1] 110 % of control

CC(=O)N(C(C)=O)C1=C(c2ccccc2)C(=O)c2ccccc21
inactive: dose: 100.0 mg/kg/injection, schedule: Q01DX009 (ip), vehicle: Klucel (hydroxypropylcellulose) (HPC) 98 % of control | dose: 100.0 mg/kg/injection, schedule: Q04DX003 (ip), vehicle: Klucel (hydroxypropylcellulose) (HPC) 96 % of control | dose: 200.0 mg/kg/injection, schedule: Q01DX009 (ip), vehicle: Klucel (hydroxypropylcellulose) (HPC) 97 % of control | dose: 200.0 mg/kg/injection, schedule: Q04DX003 (ip), vehicle: Klucel (hydroxypropylcellulose) (HPC) 105 % of control | dose: 400.0 mg/kg/injection, schedule: Q01DX009 (ip), vehicle: Klucel (hydroxypropylcellulose) (HPC) 94 % of control | dose: 400.0 mg/kg/injection, schedule: Q04DX003 (ip), vehicle: Klucel (hydroxypropylcellulose) (HPC) 107 % of control

CC1=C2CC(C(C)(C)O)CCC2(C)CC/C1=N\N1CCCCC1 (stereo not given)
inactive: dose: 100.0 mg/kg/injection, schedule: Q04DX003 (sc), vehicle: olive oil, sesame oil, peanut oil 100 % of control | dose: 200.0 mg/kg/injection, schedule: Q04DX003 (sc), vehicle: olive oil, sesame oil, peanut oil 107 % of control | dose: 400.0 mg/kg/injection, schedule: Q04DX003 (sc), vehicle: olive oil, sesame oil, peanut oil 105 % of control

COc1ccc(C(=O)C(=O)c2ccc(OC)cc2)cc1
inactive: [9] 98 % of control | [10] 98 % of control | [11] 95 % of control

CCCCC(=O)N/N=C\c1ccc(C(=O)O)cc1
inactive: [4] 96 % of control | [5] 100 % of control | [6] 110 % of control

O=C(Nc1ccccn1)Nc1cccc2ccccc12
inactive: [9] 103 % of control | [10] 97 % of control | [11] 87 % of control

C=CCN(CC=C)C(=O)Nc1ccc(Cl)c(C(F)(F)F)c1
inactive: dose: 100.0 mg/kg/injection, schedule: Q01DX009 (ip), vehicle: saline with Tween-80 97 % of control | dose: 200.0 mg/kg/injection, schedule: Q01DX009 (ip), vehicle: saline with Tween-80 105 % of control | dose: 400.0 mg/kg/injection, schedule: Q01DX009 (ip), vehicle: saline with Tween-80 110 % of control

N#Cc1ccc(P(=O)(O)O)cc1
inactive: [2] 102 % of control | [3] 94 % of control

CC(=O)Nc1ccc(C=O)cc1
inactive: [12] 100 % of control | dose: 200.0 mg/kg/injection, schedule: Q01DX001 (ip), vehicle: saline 97 % of control | dose: 400.0 mg/kg/injection, schedule: Q01DX001 (ip), vehicle: saline 116 % of control

Nc1ncnc2c1ncn2C1SC(CO)C2OC21 (stereo not given)
inactive: dose: 25.0 mg/kg/injection, schedule: Q01DX001 (ip), vehicle: carboxymethylcellulose (CMC) 93 % of control | dose: 50.0 mg/kg/injection, schedule: Q01DX001 (ip), vehicle: carboxymethylcellulose (CMC) 96 % of control | [4] 90 % of control | dose: 200.0 mg/kg/injection, schedule: Q01DX005 (ip), vehicle: saline 94 % of control
